# Experimental data published in patent US20220071891A1, “Extract of Chlamydomonas Acidophila, Method for Preparing Same and Cosmetic Compositions and Dermatological Compositions Comprising Same” (Laboratoires Expanscience, priority 2018, published 2022).
# Experiments:
# [1] = system: epidermal keratinocytes subjected to Th2 stress; assay: qRT-PCR gene expression in keratinocytes subjected to Th2 stress; type: cell-based, human; conditions: 10 μM, 24 h preincubation, Th2 cytokine cocktail 24 h; control = 100
# Protocol: (§1) The potential anti-allergic effects of the Chlamydomonas acidophila extract were investigated on: • Gene expression of pro-inflammatory chemokines in normal human epidermal keratinocytes (NHEK) stimulated by a mixture of Th2 cytokines (IL-4+IL-13+IL-22+TNF-α) mimicking a late-phase “atopic dermatitis” type phenotype (chronic inflammation). • Activation of human basophils induced by fMLP. This activation was measured using a specific kit and flow cytometry analysis by quantifying a specific marker of activated basophil cells (CD63) in the total population of basophils identified by expression of the CCR3 marker. In parallel, activation with the anti-FCεRI antibody was performed as a positive control.
# Normal human epidermal keratinocytes were preincubated for 24 hours in the presence of the CAP extract at 0.01% dry matter (DM) or reference JAK inhibitor I at 10 μM. After preincubation, the cells were retreated with the CAP extract or reference and then the cells were stimulated with a Th2 cytokine cocktail (IL4+1L13+1L22+TNFα at 10 ng/ml) for 24 hours.
# At the end of incubation, gene expression of markers of interest was assessed by qRT-PCR.
# [2] = system: keratinocytes treated with hydrogen peroxide (H2O2); assay: ROS production (DCFH-DA) in keratinocytes treated with H2O2; type: cell-based, human; conditions: 24 h preincubation, 100 μM H2O2 20 minutes
# From the text: The evaluation of the antioxidant effect of the active agent is done through the incorporation of DCFH-DA (2′,7′-dichlorofluorescin diacetate) into cultured keratinocytes. This molecule is a non-fluorescent marker in the non-oxidized state. Under oxidizing conditions (here H2O2 stress), DCFH-DA will be degraded to DCF, a molecule that will emit fluorescence. The fluorescence measured will be proportional to the amount of reactive oxygen species produced by the cell in the presence of H2O2 and/or the extract. Normal human epidermal keratinocytes were preincubated for 24 hours in the presence of the CAP extract at 0.0001% dry matter, quercetin at 10 μM or vitamin C at 500 μM (the latter two molecules serving as antioxidant reference). The cells are then treated for 1 h in the presence of 0.5 mM DCFH-DA. Oxidation is induced by adding 100 μM H2O2 for 20 minutes. A second treatment with the tested products is performed simultaneously with H2O2 stress (at the same concentrations as the pretreatment). Finally, a measurement of the fluorescence density (DFU) corresponding to the amount of ROS is performed using a microplate reader. The significance of the results was checked by a one-way ANOVA followed by a Tuckey test (GraphPad Prism software version 5.02, GraphPad Software, San Diego Calif. USA).
# human basophils = assay: Basophil activation test (Flow CAST), fMLP-stimulated; type: cell-based; conditions: whole blood, 1 μM fMLP
# Protocol: as §1
# The basophil activation test (BAT) was performed using the Flow CAST® kit (BUHLMANN, item code FKCCR).
# Whole blood was preincubated for 15 minutes in the presence of the CAP extract at 0.033% and 0.1% dry matter (DM) or the references (SB202190 at 30 μM; or cromoglycate at 10 mM).
# The stimulant, 1 μM fMLP, was then added and the blood was incubated for an additional 15 minutes in the presence of the labeling buffer containing a mixture of monoclonal antibodies (anti-CD63-FITC and anti-CCR3-PE).
# Flow cytometry analysis was then performed to count the total population of basophils (CCR3+) and activated basophils (CCR3+/CD63+).
# [3] = system: normal human keratinocytes stimulated with PMA; assay: TNF-alpha assay in keratinocytes stimulated with PMA; type: cell-based; conditions: 0.1 μM, 24 h pretreatment; for TNF-alpha, change vs PMA: then 10 μg/ml PMA; for TNF-alpha, mean: then 10 μg/ml PMA overnight
# Protocol: (§2) The anti-inflammatory activity of the Chlamydomonas acidophila extract according to the invention was evaluated on a model of inflammation induced on keratinocytes by PMA (phorbol 12-myristate 13-acetate) treatment. The release of the cytokines TNFα and prostaglandin E2 (PGE2) was analyzed.
# (§3) Normal human epidermal keratinocytes were pretreated for 24 h with the Chlamydomonas acidophila (CAP) extract according to Example 1, at concentrations comprised between 0.0001% and 0.05% dry matter, or with the anti-inflammatory reference molecules dexamethasone at 0.1 μM or indomethacin at 0.1 μM (the latter two references serving as anti-inflammatory references for cytokines and prostaglandins, respectively).
# (§4) Inflammation was then induced by addition of PMA at 10 μg/mL overnight.
# (§5) A TNFα and PGE2 assay was then performed in the cell culture supernatants.
# (§6) The significance of the results was checked by a one-way ANOVA followed by a Tuckey test (GraphPad Prism software version 5.02, GraphPad Software, San Diego Calif. USA).
# [4] = system: NiSO4-stimulated normal human keratinocytes; assay: IL8 assay in NiSO4-stimulated keratinocytes; type: cell-based; conditions: 1 μM, 24 h pretreatment, then 10 μM NiSO4 24 h
# Protocol: Normal human epidermal keratinocytes were pretreated for 24 hours with CAP extract at 0.01% and 0.05% dry matter or with the anti-inflammatory reference molecule dexamethasone at 1 μM. The keratinocytes were then treated for 24 hours with nickel: NiSO4 at 10 μM. At the end of the incubation, the amount of IL8 produced by the cells was assessed by ELISA in the supernatants.
# The concentration of IL8 assayed was normalized to the amount of total intracellular protein assessed by BC Assay.
# Significance of results was statistically analyzed by a Student's t-test.
# [5] = system: normal human keratinocytes stimulated with PMA; assay: PGE2 assay in keratinocytes stimulated with PMA; type: cell-based; conditions: 0.1 μM, 24 h pretreatment; for PGE2, change vs PMA: then 10 μg/ml PMA; for PGE2, mean: then 10 μg/ml PMA overnight
# Protocol: as §2, §3, §4, §5, §6
# [6] = system: cadmium-stimulated normal human keratinocytes; assay: PGE2 assay in cadmium-stimulated keratinocytes; type: cell-based; conditions: 0.1 μM, 24 h pretreatment, then 100 μM CdCl2 48 h
# Protocol: Normal human epidermal keratinocytes were pretreated for 24 hours with the CAP extract at 0.001% and 0.01% dry matter or with the anti-inflammatory reference molecule indomethacin at […]. The keratinocytes were then treated for 48 hours with cadmium: CdCl2 at 100 μM. At the end of the incubation, the amount of PGE2 produced by the cells was assessed by ELISA in the supernatants. The concentration of PGE2 assayed was normalized to the amount of total intracellular protein assessed by BC Assay.
smiles,measurement,setting,value
CC(C)(C)c1nc2c3cc[nH]c(=O)c3c3cc(F)ccc3c2[nH]1 [JAK inhibitor],CCL5 Relative expression (%),[1],101%
same,CCL27 Relative expression (%),[1],1436%
"O=c1c(O)c(-c2ccc(O)c(O)c2)oc2cc(O)cc(O)c12 [Quercetin, quercetin]","ROS, change vs H2O2",[2]; 10 μM,−92% vs H2O2
same,"ROS, mean",[2]; 10 μM,7787.00 fluorescence units
Oc1ccc(-c2nc(-c3ccncc3)c(-c3ccc(F)cc3)[nH]2)cc1 [SB202190],"% of activated basophils (CCR3+/CD63+), mean",human basophils; 30 μM,30.4%
"O=C1O[C@H]([C@@H](O)CO)C(O)=C1O [Vitamin C, vitamin C]","ROS, change vs H2O2",[2]; 500 μM,−89% vs H2O2
same,"ROS, mean",[2]; 500 μM,10932.50 fluorescence units
O=C(O)c1cc(=O)c2c(OCC(O)COc3cccc4oc(C(=O)O)cc(=O)c34)cccc2o1 [cromoglycate],"% of activated basophils (CCR3+/CD63+), mean",human basophils; 10 μM (table; text 10 mM),22.3%
C[C@@H]1C[C@H]2[C@@H]3CCC4=CC(=O)C=C[C@]4(C)[C@@]3(F)[C@@H](O)C[C@]2(C)[C@@]1(O)C(=O)CO [dexamethasone],"TNF-alpha, change vs PMA",[3],−56% vs PMA
same,"TNF-alpha, mean",[3],126.112 pg/mL
same,"IL8, change vs Ni",[4],−63% vs Ni
same,"IL8, mean",[4],1685 pg/ml/mg protein
same,"PGE2, change vs PMA",[5],−22% vs PMA
same,"PGE2, mean",[5],985.126 pg/mL
COc1ccc2c(c1)c(CC(=O)O)c(C)n2C(=O)c1ccc(Cl)cc1 [indomethacin],"PGE2, change vs Cd",[6],−54% vs Cd
same,"PGE2, mean",[6],3.874 pg/μg of protein
same,"TNF-alpha, change vs PMA",[3],−60%
same,"TNF-alpha, mean",[3],113.266 pg/mL
same,"PGE2, change vs PMA",[5],−87% vs PMA
same,"PGE2, mean",[5],163.031 pg/mL
